The test system of data set [1] is gap junctions between AMs and AECs. As to the kind of experiment: Gap junction blockade in vivo. More on the design: species or system mice. To be noted: for effect on PS-GAMP adjuvanticity (IgG2c): i.p. prior to and during immunization.
The conditions of data set [2]: mouse, in vivo.
For data set [3], the system named is immune mediators (Ifnb1, Gmcsf, Tnf, Ccl2, Ccl3, Ccl5, Cxcl10). To be noted: mouse, in vivo.
Another data set relates to CA09 H1N1 vaccine. The data set is classed as in vivo, C57BL/6 mice. To be noted: 20 μg, 2 weeks.
The test system of another data set is SH13 H7N9 virus. Further details: species or system mice. To be noted: mouse, in vivo.
Another data set has as its system GZ89 H3N2 virus. More on the design: species or system mice. To be noted: mouse, in vivo.
Where [4] appears, read: i.p. inhibitor, i.n. SRB-nano4, 12 h.

As to `CC1(C)[C@@H](OC(=O)CCC(=O)O)CC[C@]2(C)[C@H]3C(=O)C=C4[C@@H]5C[C@@](C)(C(=O)O)CC[C@]5(C)CC[C@@]4(C)[C@]3(C)CC[C@@H]12` [CBX, carbenoxolone], in data set [1] (setting [4]), the “SRB uptake by AMs” value is “did not affect SRB uptake by AMs” and the “entry of SRB into AECs” value is listed as “blocked”. In data set [1], the “effect on PS-GAMP adjuvanticity (IgG2c)” value is “blunted substantially”. In data set [1] (lungs receiving PS-GAMP, 12 h), the “Ifnb1 transcription in AMs” value is “increasing Ifnb1 transcription in AMs”; the “transcription of Ifnb1 and Gmcsf in AECs” value is on record as “greatly diminished”. Besides, the “reduction of recruitment of CD11b+ DCs” value in data set [1] (vaccine + PS-GAMP, lung, 24 h) is listed as 50%.
Take `CCOC(=O)C1=C[C@@H](OC(CC)CC)[C@H](NC(C)=O)[C@@H](N)C1` [oseltamivir]: the “control of CA09 H1N1 viral infection” value in the data set with CA09 H1N1 virus (unimmunized mice, 20 mg/kg/day) was “effectively control CA09H1N1”.
For the compound `Cc1ccc(Cl)c(Nc2ccccc2C(=O)O)c1Cl` [meclofenamate], the “effect on PS-GAMP adjuvanticity (IgG2c)” value in data set [1] is given as “blunted substantially”.
Regarding cholera toxin [CT], in data set [2], the “histology of lungs, nasal tissue, and brains” value is “massive inflammatory cell infiltrates in the lung”. Also, the “cytokine production in the brain” value in data set [3] was “measurable cytokine mRNA expression in the brains of some mice”.
For the compound `CC(=O)c1ccc2c(c1)[C@H](NC(=O)c1ccc(F)c(Cl)c1)[C@H](O)C(C)(C)O2` [tonabersat], the “effect on PS-GAMP adjuvanticity (IgG2c)” value in data set [1] was “blunted substantially”.
Turning to poly IC, in the data set on CA09 H1N1 vaccine, the “lower efficacy in augmenting BALF IgA (vs PS-GAMP)” value is given as 30 fold, the “lower efficacy in augmenting HAI titers (vs PS-GAMP)” value is on record as “fivefold” and the “lower efficacy in augmenting serum IgG (vs PS-GAMP)” value was determined as 100 fold. Further, in the data set on SH13 H7N9 virus, the “heterosubtypic protection from SH13 H7N9 challenge” value is listed as “failed to provoke significant heterosubtypic protection”. For the same compound, in the data set with CA09 H1N1 virus (mouse, in vivo), the “body weight loss after 10×LD50 CA09 H1N1 challenge” value is on record as “severe body weight loss” and the “protection against 10×LD50 CA09 H1N1 viral challenge” value came to 33%.
As to `CCCCCCCCc1ccc(CCC(N)(CO)CO)cc1` [FTY720], in the data set with GZ89 H3N2 virus, the “effect on cross-protection elicited by vaccine/PS-GAMP” value is “not compromised”.

(Values after patent US20220362153A1, “COMPOSITIONS AND METHODS FOR PULMONARY SURFACTANT-BIOMIMETIC NANOPARTICLES” (priority 2019, published 2022).)
